Measured values from US20140234212A1, “Targeted Buccal Delivery of Agents” (Massachusetts Institute of Technology, priority 2013, published 2014).
Like-named read-outs stand apart in the source and are kept apart here.

Columns and labels:
[1] = type: in vitro ADME, pig; conditions: not told
Experimental: FITC labeled chitosan NPs were used.
b) Ethanol (100% Ethanol diluted with 50% PBS) c) 2-Dimethylaminopropionic acid dodecyl ester (DDAIP) (“DDAIP”) (2 g/100 ml diluted in PBS) d) Ethanol+DDAIP (100% Ethanol diluted with 4 g/100 ml of DDAIP to achieve the same final working concentration of Ethanol and DDAIP as used in (b) and (c) respectively. e) TDCA (100 mM diluted in PBS)
Fresh pig tongue was obtained from the Butcher shop at Cambridge. The middle portion of the tongue was selected for these studies. 5 designated sections were chosen on this portion and 0.75 mL of each of these PEs were applied at each of these sections, followed by the addition of the wafers (25 mg each) with additional 0.75 mL of PEs on top of the wafers. The incubation was done in the dark at RT for 1 hour. The tongue was then washed with water and all the wafers were removed from their designated sections. The respective sections were individually cut and embedded into an OCT for sectioning using a microtome. 50 microns slices were cut from each of these sections and 2 slices were placed on slides. The slides were kept submerged in water for 3 hours to remove any bound OCT as it interferes with the image quality. Following that, each of the slides from different sections were mounted with cover slips using a DAPI containing mounting media and imaged using a fluorescence microscope. Images were taken at 4×, 10× and 20× in both FITC and DAPI channels. In addition, slices of untreated tongue were also cut and imaged to account for inherent fluorescence of the tongue. However, before conducting permeation studies, many experiments were performed to discover the optimal concentrations of PEs that would not result in significant modifications to out current wafer synthesis protocol and allow seamless integration into the wafer.

[2] = system: hamster cheek pouch carcinoma (HCPC1) tumors; assay: Tumor inhibition and weight change in HCPC1 allografted hamsters; type: in vivo, Golden Syrian hamsters; conditions: 1.15 mg/kg cisplatin equivalent; sponge topically, free cisplatin intraperitoneally
Experimental: Golden Syrian hamsters, 71-80 g, were anesthetized and prepared for implantation of the tumor cells. Hamster cheek pouch carcinoma (HCPC 1) cells were collected from culture, and 1×10^8 cells suspended in PBS buffer were then injected subcutaneously into the cheek pouch of a hamster. After 7 days when tumors reached around 100 mm^3 in size, hamsters were divided into 4 groups, minimizing weight and tumor size difference. […] Two doses were administrated with 3-day interval. After treatments, the animals were monitored closely, and measurements of the tumor size and body weight for each animal were performed at regular intervals using calipers without knowledge of which injection each animal had received. The tumor volume for each time point was calculated according to the formula, (length)×(width)^2/2, where the long axis is the length, the short axis is the width.

[3] = system: HCPC 1 (hamster cheek pouch carcinoma) cells; assay: MTS cell viability assay; type: cell-based; conditions: HCPC 1 cells, 48 h
Experimental: A cell viability study of 33% cisplatin-loaded nanoparticles was also conducted using the tetrazolium compound (3-(4,5-dimethylthiazol-2-yl)-5-(3-carboxymethoxy phenyl)-2-(4-sulfophenyl)-2H-tetrazolium inner salt, MTS. When incorporated by the cells, MTS is bioreduced by metabolically active cells. The amount of […] is directly proportional to the number of living cells in culture.

Compound: CCCCCCCCCCCCOC(=O)C(C)N(C)C (stereo not shown) [DDAIP, 2-Dimethylaminopropionic acid dodecyl ester]
- Permeation Depth ([1]; pig, 1 hour): 200 microns
- depth permeated by the NPs ([1]; pig, 1 hour, 2 g/100 ml): 200 μm

Compound: N.N.[Cl][Pt][Cl] [free cisplatin, cis-diamminedichloroplatinum(ll)]
- tumor inhibition [2]: comparable decrease in tumor size
- weight change [2]: significant weight loss
- IC50 [3]: ~60 nM

Compound: C[C@H](CCC(=O)NCCS(=O)(=O)O)[C@H]1CC[C@H]2[C@@H]3CC[C@@H]4C[C@H](O)CC[C@]4(C)[C@H]3C[C@H](O)[C@]12C [TDCA]
- Permeation Depth [1]: 100 microns

Compound: CCO [Ethanol]
- Permeation Depth ([1]; pig, 1 hour): 140 microns
